Measured values from patent US9040516B2, “Uracil derivative and use thereof for medical purposes” (SUMITOMO DAINIPPON PHARMA CO., LTD., priority 2011, dated 2015).

target: T1, human neutrophil elastase (Homo sapiens, UniProt P08246); assay: Inhibitory action 2 against human neutrophil elastase (Test Example 2; fluorogenic substrate MeOSuc-AAPV-AMC, buffer with 400 mM NaCl, 0.2 mg/ml BSA); format: biochemical; details: 37° C., read-out: IC50 value (compound concentration required for 50% inhibition of human neutrophil elastase)
T1 construct: purchased Elastin Products Company
T1 sequence (P08246 30-267): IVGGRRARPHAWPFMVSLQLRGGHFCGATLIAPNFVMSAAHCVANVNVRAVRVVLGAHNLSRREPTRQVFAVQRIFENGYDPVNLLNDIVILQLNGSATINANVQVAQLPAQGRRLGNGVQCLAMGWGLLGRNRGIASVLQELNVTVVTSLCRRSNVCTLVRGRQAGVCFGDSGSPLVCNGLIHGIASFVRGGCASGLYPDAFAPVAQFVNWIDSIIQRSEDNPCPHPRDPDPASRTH
Experimental: Assay buffer (0.4 unit/ml HNE (human neutrophil elastase, available from Elastin Products Company), 200 mM HEPES [N-(2-hydroxyethyl)piperazine-N′-(2-ethanesulfonic acid)], pH 7.5, 400 mM NaCl, 0.2 mg/ml BSA (bovine serum albumin)) 100 μl, water for injection 20 μl and 1% DMSO (dimethyl sulfoxide) solution of the present compound 20 μl were mixed in a 96 well plate and the mixed solutions were pre-incubated at 37° C. for five minutes. After pre-incubation, MeOSuc-AAPV-AMC (methoxysuccinyl-alanyl-alanyl-prolyl-valyl-aminomethyl cumaride (available from Sigma Aldrich Corp.) solution as fluorogenic substrate (which was dissolved in 10% DMSO solution so as to adjust to 0.5 mM) 40 μl was added to the above-prepared mixed solution so as to initiate the reaction, and the mixture was incubated at 37° C. for five minutes. The fluorescence intensity of AMC was measured at an excitation wavelength of 380 nm and a fluorescence wavelength of 460 nm and the inhibition ratio was determined.

Q: Which IC50 does the source give for `Cc1c(-c2c(S(C)(=O)=O)cnn2-c2ccc(C#N)cc2)c(=O)n(C(C)C)c(=O)n1-c1cccc(C(F)(F)F)c1` (racemic) [Example 276, (±)-4-(5-(3-Isopropyl-6-methyl-2,4-dioxo-1-(3-trifluoromethylphenyl)-1,2,3,4-tetrahydropyrimidin-5-yl-4-(methylsulfonyl)-1H-pyrazol-1-yl)benzonitrile] here?
A: 12 nM

Q: Which IC50 does the source give for `Cc1c(-c2c(S(N)(=O)=O)cnn2-c2ccc(C#N)cc2)c(=O)n(C)c(=O)n1-c1cccc(C(F)(F)F)c1` (single isomer, unassigned) [Example 209, (+)-1-(4-cyanophenyl)-5-(3,6-dimethyl-2,4-dioxo-1-(3-trifluoromethylphenyl)-1,2,3,4-tetrahydropyrimidin-5-yl)-1H-pyrazole-4-sulfonamide] here?
A: 9.3 nM

Q: `Cc1c(-c2c(S(C)(=O)=O)cnn2-c2ccc(C#N)cc2)c(=O)n(C)c(=O)n1-c1cccc(C(F)(F)F)c1` (single isomer, unassigned) [Example 267] was tested. Which IC50 did it give?
A: 11.6 nM

Q: How did the IC50 turn out when `CCn1c(=O)c(-c2ccnn2-c2ccc(C#N)cc2)c(C)n(-c2cccc(C(F)(F)F)c2)c1=O` [Example 41, 4-(5-(3-ethyl-6-methyl-2,4-dioxo-1-(3-(trifluoromethyl)phenyl)-1,2,3,4-tetrahydropyrimidin-5-yl)-1H-pyrazol-1-yl)benzonitrile] was run?
A: 12.6 nM

Q: With `Cc1c(-c2ccnn2-c2ccc(C#N)cc2)c(=O)n(C(C)C)c(=O)n1-c1cccc(C(F)(F)F)c1` [Example 42, 4-(5-(3-isopropyl-6-methyl-2,4-dioxo-1-(3-(trifluoromethyl)phenyl)-1,2,3,4-tetrahydropyrimidin-5-yl)-1H-pyrazol-1-yl)benzonitrile] as the molecule, how does the IC50 read?
A: 3.5 nM

Q: Which IC50 does the source give for `CCc1c(-c2ccnn2-c2ccc(C#N)cc2)c(=O)n(C)c(=O)n1-c1cccc(C(F)(F)F)c1` [Example 50, 4-(5-(6-ethyl-3-methyl-2,4-dioxo-1-(3-(trifluoromethyl)phenyl)-1,2,3,4-tetrahydropyrimidin-5-yl)-1H-pyrazol-1-yl)benzonitrile] here?
A: 13.7 nM

Q: How did the IC50 turn out when `Cc1c(-c2ccnn2-c2ccc(C#N)cc2)c(=O)n([C@H](C)CO)c(=O)n1-c1cccc(C(F)(F)F)c1` [Example 55, (R)-4-(5-(3-(1-hydroxypropan-2-yl)-6-methyl-2,4-dioxo-1-(3-(trifluoromethyl)phenyl)-1,2,3,4-tetrahydropyrimidin-5-yl)-1H-pyrazol-1-yl)benzonitrile] was run?
A: 4.9 nM

Q: Which IC50 does the source give for `Cc1c(-n2cnnc2-c2ccc(C#N)cc2)c(=O)n(C(C)C)c(=O)n1-c1cccc(C(F)(F)F)c1` [Example 65, 4-(4-(3-Isopropyl-6-methyl-2,4-dioxo-1-(3-(trifluoromethyl)phenyl)-1,2,3,4-tetrahydropyrimidin-5-yl)-4H-1,2,4-triazol-3-yl)benzonitrile] here?
A: 5.5 nM

Q: How did the IC50 turn out when `N#Cc1ccc(-n2nccc2-c2cn(-c3cccc(C(F)(F)F)c3)c(=O)n([C@@H]3CNC(=O)C3)c2=O)cc1` [Example 90] was run?
A: 353 nM

Q: With `Cc1c(-c2c(C(=O)N(C)C)cnn2-c2ccc(C#N)cc2)c(=O)n(C(C)C)c(=O)n1-c1cccc(C(F)(F)F)c1` [Example 153] as the molecule, how does the IC50 read?
A: 5.4 nM

Q: `CCn1c(=O)c(-c2c(C(=O)N3CC(O)C3)cnn2-c2ccc(C#N)cc2)c(C)n(-c2cccc(C(F)(F)F)c2)c1=O` [Example 156] was tested. Which IC50 did it give?
A: 10 nM

Q: Which IC50 does the source give for `CCn1c(=O)c(-c2c(C(=O)N(C)CCO)cnn2-c2ccc(C#N)cc2)c(C)n(-c2cccc(C(F)(F)F)c2)c1=O` [Example 176] here?
A: 11.4 nM

Q: Which IC50 does the source give for `COCCNC(=O)c1cnn(-c2ccc(C#N)cc2)c1-c1c(C)n(-c2cccc(C(F)(F)F)c2)c(=O)n(C)c1=O` [Example 178] here?
A: 13.5 nM

Q: For `Cc1c(-c2c(C(=O)NC3CC3)cnn2-c2ccc(C#N)cc2)c(=O)n(C)c(=O)n1-c1cccc(C(F)(F)F)c1` [Example 179], which IC50 is on record?
A: 8.7 nM

Q: Which IC50 does the source give for `Cc1c(-c2c(C(=O)OCCCCN(C)C)cnn2-c2ccc(C#N)cc2)c(=O)n(C)c(=O)n1-c1cccc(C(F)(F)F)c1` [Example 187, 4-(dimethylamino)butyl 1-(4-cyanophenyl)-5-(3,6-dimethyl-2,4-dioxo-1-(3-trifluoromethylphenyl)-1,2,3,4-tetrahydropyrimidin-5-yl)-1H-pyrazole-4-carboxylate] here?
A: 19.4 nM

Q: For `COC(=O)c1cnn(-c2ccc(C#N)cc2)c1-c1c(C)n(-c2cccc(C(F)(F)F)c2)c(=O)n(C)c1=O` [Example 188], which IC50 is on record?
A: 18.6 nM

Q: Which IC50 does the source give for `Cc1c(-c2c(S(=O)(=O)O)cnn2-c2ccc(C#N)cc2)c(=O)n(C)c(=O)n1-c1cccc(C(F)(F)F)c1` [Example 191, 1-(4-cyanophenyl)-5-(3,6-dimethyl-2,4-dioxo-1-(3-trifluoromethylphenyl)-1,2,3,4-tetrahydropyrimidin-5-yl)-1H-pyrazole-4-sulfonic acid] here?
A: 23.1 nM

Q: Which IC50 does the source give for `Cc1c(-c2c(S(=O)(=O)O)cnn2-c2ccc(C#N)cc2)c(=O)n(C)c(=O)n1-c1cccc(C(F)(F)F)c1` [Example 196] here?
A: 8.4 nM

Q: With `Cc1c(-c2c(S(N)(=O)=O)cnn2-c2ccc(C#N)cc2)c(=O)n(C)c(=O)n1-c1cccc(C(F)(F)F)c1` [Example 205, 1-(4-cyanophenyl)-5-(3,6-dimethyl-2,4-dioxo-1-(3-trifluoromethylphenyl)-1,2,3,4-tetrahydropyrimidin-5-yl)-1H-pyrazole-4-sulfonamide] as the molecule, how does the IC50 read?
A: 15 nM

Q: With `Cc1c(-c2c(S(N)(=O)=O)cnn2-c2ccc(C#N)cc2)c(=O)n(C(C)C)c(=O)n1-c1cccc(C(F)(F)F)c1` [Example 206] as the molecule, how does the IC50 read?
A: 9.3 nM

Q: `Cc1c(-c2c(S(N)(=O)=O)cnn2-c2ccc(C#N)cc2)c(=O)n(C)c(=O)n1-c1cccc(C(F)(F)F)c1` [Example 211, (+)-1-(4-cyanophenyl)-5-(3,6-dimethyl-2,4-dioxo-1-(3-trifluoromethylphenyl)-1,2,3,4-tetrahydropyrimidin-5-yl)-1H-pyrazole-4-sulfonamide 0.5 IPA solvates] was tested. Which IC50 did it give?
A: 8.8 nM

Q: Which IC50 does the source give for `CNS(=O)(=O)c1cnn(-c2ccc(C#N)cc2)c1-c1c(C)n(-c2cccc(C(F)(F)F)c2)c(=O)n(C)c1=O` [Example 218] here?
A: 14.7 nM

Q: How did the IC50 turn out when `Cc1c(-c2c(S(=O)(=O)N3CCOCC3)cnn2-c2ccc(C#N)cc2)c(=O)n(C)c(=O)n1-c1cccc(C(F)(F)F)c1` [Example 221] was run?
A: 19.8 nM

Q: How did the IC50 turn out when `Cc1c(-c2c(S(=O)(=O)NCCO)cnn2-c2ccc(C#N)cc2)c(=O)n(C)c(=O)n1-c1cccc(C(F)(F)F)c1` [Example 227] was run?
A: 7.8 nM

Q: How did the IC50 turn out when `Cc1c(-c2c(S(=O)(=O)N3CCOC3=O)cnn2-c2ccc(C#N)cc2)c(=O)n(C)c(=O)n1-c1cccc(C(F)(F)F)c1` [Example 239] was run?
A: 7.7 nM

Q: Which IC50 does the source give for `CCCCC(=O)NS(=O)(=O)c1cnn(-c2ccc(C#N)cc2)c1-c1c(C)n(-c2cccc(C(F)(F)F)c2)c(=O)n(C)c1=O` [Example 243] here?
A: 5.4 nM

Q: For `Cc1c(-c2c(S(=O)(=O)NC(=O)c3ccccc3)cnn2-c2ccc(C#N)cc2)c(=O)n(C)c(=O)n1-c1cccc(C(F)(F)F)c1` [Example 249], which IC50 is on record?
A: 11.9 nM

Q: With `COC(=O)NS(=O)(=O)c1cnn(-c2ccc(C#N)cc2)c1-c1c(C)n(-c2cccc(C(F)(F)F)c2)c(=O)n(C)c1=O` [Example 252] as the molecule, how does the IC50 read?
A: 20.6 nM

Q: Which IC50 does the source give for `CCNC(=O)NS(=O)(=O)c1cnn(-c2ccc(C#N)cc2)c1-c1c(C)n(-c2cccc(C(F)(F)F)c2)c(=O)n(C)c1=O` [Example 257] here?
A: 7.7 nM

Q: Which IC50 does the source give for `Cc1c(-c2c(S(=O)(=O)NC(=O)C3CCCCC3)cnn2-c2ccc(C#N)cc2)c(=O)n(C)c(=O)n1-c1cccc(C(F)(F)F)c1` [Example 261] here?
A: 7.2 nM

Q: Which IC50 does the source give for `Cc1c(-c2c(S(C)(=O)=O)cnn2-c2ccc(C#N)cc2)c(=O)n(C)c(=O)n1-c1cccc(C(F)(F)F)c1` [Example 265] here?
A: 23.7 nM

Q: For `CCn1c(=O)c(-c2c(C(C)(C)O)cnn2-c2ccc(C#N)cc2)c(C)n(-c2cccc(C(F)(F)F)c2)c1=O` [Example 288, 4-(5-(3-ethyl-6-methyl-2,4-dioxo-1-(3-trifluoromethylphenyl)-1,2,3,4-tetrahydropyrimidin-5-yl)-4-(2-hydroxypropan-2-yl)-1H-pyrazol-1-yl)benzonitrile], which IC50 is on record?
A: 26.2 nM

Q: Which IC50 does the source give for `Cc1c(-c2c(C3(O)CCS(=O)(=O)CC3)cnn2-c2ccc(C#N)cc2)c(=O)n(C)c(=O)n1-c1cccc(C(F)(F)F)c1` [Example 293] here?
A: 25.1 nM

Q: How did the IC50 turn out when `CCn1c(=O)c(-c2c(C(C)(C)N)cnn2-c2ccc(C#N)cc2)c(C)n(-c2cccc(C(F)(F)F)c2)c1=O` [Example 297, 4-(4-(2-aminopropane-2-yl)-5-(3-ethyl-6-methyl-2,4-dioxo-1-(3-trifluoromethylphenyl)-1,2,3,4-tetrahydropyrimidin-5-yl)-1H-pyrazol-1-yl)benzonitrile] was run?
A: 29.7 nM

Q: Which IC50 does the source give for `CCn1c(=O)c(-c2c(C3(N)CCC3)cnn2-c2ccc(C#N)cc2)c(C)n(-c2cccc(C(F)(F)F)c2)c1=O` [Example 298] here?
A: 42.7 nM

Q: Which IC50 does the source give for `Cc1c(-c2c(CN3CC(F)(F)C3)cnn2-c2ccc(C#N)cc2)c(=O)n(C)c(=O)n1-c1cccc(C(F)(F)F)c1` [Example 305] here?
A: 22 nM

Q: `Cc1c(-c2c(N3CCOCC3)cnn2-c2ccc(C#N)cc2)c(=O)n(C)c(=O)n1-c1cccc(C(F)(F)F)c1` [Example 315, 4-(5-(3,6-Dimethyl-2,4-dioxo-1-(3-trifluoromethylphenyl)-1,2,3,4-tetrahydropyrimidin-5-yl)-4-morpholino-1H-pyrazol-1-yl)benzonitrile] was tested. Which IC50 did it give?
A: 24.2 nM

Q: Which IC50 does the source give for `Cc1c(-c2c(N3CCN(C(C)C)CC3)cnn2-c2ccc(C#N)cc2)c(=O)n(C)c(=O)n1-c1cccc(C(F)(F)F)c1` [Example 318] here?
A: 14.9 nM
